Measurements from PubChem BioAssay AID179 (DTP/NCI, 2004).
Calls of active or inactive are those of the source.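 How the source made its calls: active means compounds giving half or more protection of infected cells from virus-caused growth loss, again on retest; inactive means the rest.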

Test system: CEM cells HIV-1 protection, formazan growth assay
Test: NCI AIDS Antiviral Assay
Conditions: for IC50: measured here: growth of uninfected CEM cells
Procedure, shortened: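 Category rules: moderately active means at least 50% protection on retest, and confirmed active means 100% protection reproducibly. The underlying data came from a formazan growth assay in HIV-1-infected CEM cells.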

O=C(Nc1nc2ccccc2n1Cc1ccc(Cl)cc1)NC12CC3CC(CC(C3)C1)C2
EC50: > 200 µM | IC50: > 200 µM

CC(=O)NNC(=S)N/C=C(/C(=O)c1ccccc1)c1ccccc1
EC50: > 479 µM | IC50: 302 µM

CC1(C)OC(=O)C(=Cc2cccc(F)c2)C(=O)O1
EC50: > 525 µM | IC50: > 525 µM

COC1/C=C/OC2(C)Oc3c(C)c(O)c4c(O)c(c(/C=N/N(C)c5nc6c(N)ncnc6n5C5OC(CO)C(O)C5O)c(O)c4c3C2=O)NC(=O)C(C)=C/C=C/C(C)C(O)C(C)C(O)C(C)C(OC(C)=O)C1C (configuration not stated)
EC50: > 200 µM | IC50: 112 µM

C/C=C/C=C1\C=Cc2c(C(=O)OC)coc(=O)c21
EC50: > 200 µM | IC50: 35.5 µM

O=C(OCc1ccccc1)C(Cc1ccc(OCc2ccccc2)cn1)NC(=O)C(F)(F)F (configuration not stated)
EC50: > 200 µM | IC50: 33.1 µM

Cc1cc(C)c(S(=O)(=O)Sc2nnnn2-c2ccccc2)c(C)c1
EC50: > 20 µM | IC50: > 20 µM

CC(=O)C(C(C)=O)=C1CCCC(O)O1 (configuration not stated)
EC50: > 200 µM | IC50: 174 µM

CC(=O)Nc1nc(C#N)[nH]c1C#N
EC50: > 200 µM | IC50: > 200 µM

CCNc1nnc(-c2ccccc2Nc2ccccc2-c2nnc(NCC)s2)s1
EC50: > 200 µM | IC50: 16.2 µM

c1ccc(-c2onc3c2CCCC3)cc1
outcome: inactive

O=C(Nc1nc2ncn(CCNCc3ccccc3)c2c(=O)[nH]1)c1ccccc1
EC50: > 174 µM | IC50: 105 µM

COC(=O)[C@H]1C(=CBr)[C@@H]1C(=O)OC.[C-]#[O+].[C-]#[O+].[C-]#[O+].[C-]#[O+].[Fe]
EC50: > 200 µM | IC50: > 200 µM

COc1cc2c(c(OC)c1OC)CCC1C(=O)NN=C21 (configuration not stated)
EC50: > 912 µM | IC50: 102 µM

Cc1ccc(-n2c(=S)[nH]c3ccc(Br)cc3c2=O)cc1
EC50: > 269 µM | IC50: 89.1 µM

Cc1ccc(S(=O)(=O)SC(SCC(=O)c2ccc(Br)cc2)C(=O)c2ccc(Br)cc2)cc1 (configuration not stated)
EC50: > 40.7 µM | IC50: 38.9 µM

C[C@@H](NC(=O)Cn1c(Cl)nc2ccccc21)c1ccccc1
EC50: > 200 µM | IC50: 13.5 µM

O=C1c2ccccc2C(=O)N1C/C(Cl)=C/Cl
EC50: > 200 µM | IC50: > 200 µM

CC(=O)/C(=C/c1ccccc1[N+](=O)[O-])C(=O)c1ccccc1
EC50: > 24.5 µM | IC50: 2.09 µM

CCOC(=O)[C@@]1(C(C)=O)CC(C)=C(C)C[S@]1=O
EC50: > 200 µM | IC50: > 200 µM

C=C[C@@](C)(/C=C/c1ccc(O)cc1)CCC=C(C)C
EC50: > 200 µM | IC50: 25.1 µM

CC1=C[C@]2(O)C(=O)[C@H](C)C[C@H]3[C@@H](CC[C@@](C)(O)/C=C\2C1=O)C3(C)C
EC50: > 30.2 µM | IC50: 15.8 µM

CCOP(=S)(N/N=C1/CCCC(C)C1)OCC (configuration not stated)
EC50: > 200 µM | IC50: 102 µM

O=C(C[N+]12CC=C(CO)C1C(O)CC2)c1ccc(Br)cc1 (configuration not stated)
EC50: > 575 µM | IC50: > 575 µM

O=S1(=O)Cc2nc3ccccc3n2C1c1c(F)cccc1F (configuration not stated)
EC50: 29.5 µM | IC50: 75.9 µM

CCOC(=O)Nc1nc2ccc(Cn3cccc3)cc2[nH]1
EC50: > 13.2 µM | IC50: 0.794 µM

Clc1ccc(OCc2nc3ccccc3[nH]2)cc1
EC50: > 200 µM | IC50: 162 µM

CCOc1ccc(C2OCCC(C)O2)cc1OC (configuration not stated)
EC50: > 200 µM | IC50: > 200 µM

C=C(C(N)=O)c1ccc([N+](=O)[O-])o1
EC50: > 200 µM | IC50: 3.47 µM

CCCc1ccc(NCc2cc(OC)c(OC)c(OC)c2)cc1
EC50: > 74.1 µM | IC50: 31.6 µM

CN1CCOC(C(NC(=O)c2ccccc2)c2ccccc2)C1=O (configuration not stated)
EC50: > 200 µM | IC50: > 200 µM

CCCCCCCCCCCc1cc(=O)c2c(O)cccc2o1
EC50: > 14.8 µM | IC50: > 14.8 µM

Cc1ccc(O)c(-c2cscn2)c1
EC50: > 200 µM | IC50: 107 µM

CC(=O)C(CN(Cc1ccccc1)Cc1ccccc1)C(c1ccccc1)c1c(O)c2ccccc2oc1=O (configuration not stated)
EC50: > 170 µM | IC50: > 100 µM

O=C(O)CSc1nnc(COc2ccccc2)n1-c1ccccc1
EC50: > 741 µM | IC50: 407 µM

COCCOCOC(C)(C)[C@H](CCOC(C)=O)O[Si](c1ccccc1)(c1ccccc1)C(C)(C)C
outcome: inactive

C=CCCCCCCCCC(=O)NCc1ccncc1
EC50: > 200 µM | IC50: 97.7 µM

COC(=O)CC1C(COC(C)=O)OC(n2cc(C)c(=O)[nH]c2=O)C1OC(C)=O (configuration not stated)
outcome: inactive

CN(C)COC(=S)SC(=O)OCCCl
EC50: > 200 µM | IC50: > 200 µM

CCCN1CN(C(C(=O)N[C@@H]2C(=O)N3C2SC(C)(C)C3C(=O)O)c2ccccc2)CSC1=S (some centres not stated)
EC50: > 257 µM | IC50: 148 µM

COc1ccc(N(C(=O)NCCO)c2ccccc2)cc1
EC50: > 200 µM | IC50: > 200 µM

Cc1cn([C@H]2C[C@@H]3[C@@H](COC(CCC[Se]c4ccccc4)N3O)O2)c(=O)[nH]c1=O (some centres not stated)
EC50: 13.2 µM | IC50: 117 µM

NCCN(CCN(C(=O)Nc1ccccc1)c1ccccc1)C(=O)Nc1ccccc1
EC50: > 200 µM | IC50: 35.5 µM

OC1(c2ccccc2)CC2CCC(C1)N2CCCC(O)(c1ccccc1)c1ccccc1 (configuration not stated)
EC50: > 200 µM | IC50: 28.8 µM

O=C(Nc1ccc(/C=C/c2ccc(NC(=O)c3ccc(N=Nc4cc(S(=O)(=O)O)c5cccnc5c4O)cc3)cc2S(=O)(=O)O)c(S(=O)(=O)O)c1)c1ccc(N=Nc2cc(S(=O)(=O)O)c3cccnc3c2O)cc1
EC50: 17.8 µM | IC50: > 100 µM

CC(=O)OCC1OC(n2c3c(cc(C#N)c2=O)CCCCCC3)C(OC(C)=O)C(OC(C)=O)C1OC(C)=O (configuration not stated)
EC50: > 200 µM | IC50: 170 µM

CCN(CC)C(=O)SCCSC(=O)N(CC)CC
EC50: > 100 µM | IC50: > 100 µM

NC(Cc1cnc[nH]1)C(=O)NC(Cc1ccc(O)c(O)c1)C(=O)NCC(=O)N/C=C\c1c[nH]c2cc(Br)ccc12 (configuration not stated)
EC50: > 81.3 µM | IC50: > 81.3 µM

N#CCCN(CCC#N)c1ccc(/C=C2\CC(O)(c3ccccc3)N(c3ccc(Cl)cc3)C2=O)cc1 (configuration not stated)
EC50: > 5.5 µM | IC50: > 5.5 µM

CCCCCN(CCCCC)C(=O)COc1cc2c(O)c3c(O)c(C)c4c(c13)C(=O)C(C)(O/C=C/C(OC)C(C)C(OC(C)=O)C(C)C(O)C(C)C(O)C(C)/C=C/C=C(\C)C(=O)N2)O4 (configuration not stated)
EC50: > 200 µM | IC50: 7.76 µM

CC[N+]1(C)CCC(O)(c2ccc(C)cc2)C(C(=O)c2ccc(C)cc2)C1 (configuration not stated)
EC50: > 200 µM

COC(=O)NNc1c([N+](=O)[O-])cnn(-c2ccccc2)c1=O
EC50: > 58.9 µM | IC50: 0.295 µM

O=C(Nc1nc(C23CC4CC(CC(C4)C2)C3)cs1)c1cc2ccccc2oc1=O
EC50: > 200 µM | IC50: > 200 µM

C=C1C(O)O[C@@H]2O[C@@]3(C)CC[C@H]4[C@H](C)CCC1[C@@]24O3 (some centres not stated)
EC50: > 200 µM | IC50: 95.5 µM

Nc1ccc2nc(NCc3ccc(F)cc3)cnc2c1
EC50: > 933 µM | IC50: 83.2 µM

COC(=O)c1ccc(CCc2cc(O)ccc2O)cc1
EC50: > 200 µM | IC50: 4.9 µM

c1ccc(CN2CCC(Nc3ccccc3)(c3nnnn3Cc3ccccc3)CC2)cc1
EC50: > 200 µM | IC50: 33.1 µM

Cc1cc(C)c2c(c1)C/C(=C\c1ccccc1C(=O)O)C2=O
outcome: inactive

S=c1[nH]ncc(SCc2ccccc2)c1SCc1ccccc1
EC50: > 200 µM | IC50: 13.2 µM

O=S(=O)(OC1CC12CCCCC2c1ccccc1)c1ccccc1 (configuration not stated)
EC50: > 200 µM | IC50: > 200 µM

C=CCOc1ccc(/C(N=Nc2ccc(Cl)cc2)=N/NC(=O)c2ccccc2)cc1OC
EC50: > 200 µM | IC50: 87.1 µM

COC(=O)CC1C(=O)OC23CCC1C2(C)CCC1C3CCC2CC(OC(C)=O)CCC21C (configuration not stated)
outcome: inactive

O=c1cc(Nc2cccc(O)c2)[nH]c(=O)[nH]1
outcome: inactive

COc1ccc(-n2[nH]c3c(cnc4ccccc43)c2=O)cc1
EC50: > 200 µM | IC50: > 200 µM

C[n+]1cccc2ccc3cccnc3c21
EC50: > 200 µM | IC50: 7.94 µM

O=c1c(SCc2cccc(F)c2)c(SCc2cccc(F)c2)cnn1-c1ccccc1
EC50: > 30.2 µM | IC50: 21.9 µM

COc1ccc(C(CC(=O)c2cccs2)C(=O)c2cccs2)cc1 (configuration not stated)
EC50: > 200 µM | IC50: > 200 µM

Cc1c(-c2ccccc2)nn2cc(-c3ccccc3)nnc12
EC50: > 200 µM | IC50: 11 µM

COc1cc(CC2C(=O)NC(=O)NC2=O)ccc1OCc1ccccc1
outcome: inactive

COC(OC)[C@@H]1OC[C@@H](O)[C@@H]1n1cnc2c(N)ncnc21
EC50: > 200 µM | IC50: > 200 µM

O=C(C=Nc1ccccc1C(=O)[O-])c1ccco1.O=C(C=Nc1ccccc1C(=O)[O-])c1ccco1.[Zn+2]
EC50: > 1.38 µM | IC50: > 1.38 µM

O=c1c2c(c1=O)C1(SCCCS1)c1cc(Cl)ccc1O2
EC50: > 200 µM | IC50: > 200 µM

COC(=O)C1=C(C)NC2=C(C(=O)c3ccccc32)C1c1cn(-c2ccccc2)nc1-c1ccccc1 (configuration not stated)
EC50: > 200 µM | IC50: 8.71 µM

C/C(O)=C(\C=N\C(N)=S)C(=O)Nc1ccccc1C
EC50: > 200 µM | IC50: > 200 µM

CCOc1ccccc1N=Nc1ccc2oc(=O)c(C(C)=O)cc2c1
EC50: > 8.13 µM | IC50: > 8.13 µM

COc1ccc(-c2cc(=O)c3c(OC)c(OC)c(OC)c(OC)c3o2)c(OC)c1
EC50: > 200 µM | IC50: 20.4 µM

NC(=S)N/N=C\NN/C=N/NC(N)=S
EC50: > 200 µM | IC50: 102 µM

CO/C1=C\C(C)=C\C(C)C(O)C(C)C/C(C)=C/C=C/C(OC)C(C(C)C(O)C(C)C2(O)CC(O)C(C)C(C(C)C)O2)OC1=O (configuration not stated)
EC50: > 0.2 µM | IC50: 0.0129 µM

Cc1ccc(Sc2cc([N+](=O)[O-])cc(Sc3ccc(C)cc3)c2Sc2ccc(C)cc2)cc1
EC50: > 3.72 µM | IC50: > 3.72 µM

CC1=C(C(=O)NNC(=O)c2ccccc2)CC(C(=O)NNC(=O)c2ccccc2)=C(C)N1
EC50: > 200 µM | IC50: > 200 µM

O=C(Cc1nc2ccc(C(=O)c3ccccc3)cc2[nH]c1=O)C(=O)Nc1ccccc1[N+](=O)[O-]
EC50: > 79.4 µM | IC50: 51.3 µM

O=c1c(SCc2ccccc2)c(SCc2ccccc2)cnn1-c1ccccc1
EC50: > 24 µM

CC#N.CC#N.COC(=O)[C@@H]1CN(C(=O)CCc2ccccc2)C(=O)[N-]1.COC(=O)[C@@H]1CN(C(=O)CCc2ccccc2)C(=O)[N-]1.COC(=O)[C@@H]1CN(C(=O)CCc2ccccc2)C(=O)[N-]1.COC(=O)[C@@H]1CN(C(=O)CCc2ccccc2)C(=O)[N-]1.[Rh+2].[Rh+2]
EC50: > 200 µM | IC50: 4.37 µM
